Measurements taken from ChEMBL document CHEMBL2062363, “Ligand-based design, in silico ADME-Tox filtering, synthesis and biological evaluation to discover new soluble 1,4-DHP-based CFTR activators” (Eur J Med Chem, 2012).

System: not listed separately
Experiment: Potentiation of forskolin-induced CFTR deltaF508 mutant expressed in FRT cells co-expressing halide-sensitive YFP-H148Q/I152L by fluorescence quenching assay
Type: cell-based, Homo sapiens

SMILES | pEC50 for potentiation of CFTR deltaF508 (activation potency)
C=CCOC(=O)C1=C(C)NC(C)=C(C(=O)OCC=C)C1c1ccc(Cl)cc1Cl | 6.4
C=CCOC(=O)C1=C(C)NC(C)=C(C(=O)OCC=C)C1c1ccc(OC)c(OC)c1 | 5.55
C=CCOC(=O)C1=C(C)NC(C)=C(C(=O)OCC=C)C1c1ccc(C(=O)OC)cc1 | 5.52
COC(=O)C1=CNC=C(C(=O)OC)C1c1ccc(Cl)c(Cl)c1 | 5.7
CCOC(=O)C1=C(C)NC(C)=C(C(=O)OC)C1c1ccco1 (stereo unspecified) | 5.85
CCOc1ccc(C2C(C(=O)OC)=C(C)NC(C)=C2C(=O)OC)cc1OC | 5.62
CCOC(=O)C1=C(C)NC(SC)=C(C#N)C1c1ccccc1 (stereo unspecified) | 5.3
C=CCOC(=O)C1=C(C)NC(C)=C(C(=O)OCC=C)C1c1ccc(OC)cc1 | 6.3
CCOC(=O)C1=C(C)NC(C)=C(C(=O)OC)C1c1ccc(C)o1 (stereo unspecified) | 6.15
COC(=O)C1=C(C)NC(C)=C(C(=O)OC)C1c1ccc(Cl)c(Cl)c1 | 5.77
CC1=C(C(=O)OCc2ccccc2)C(c2ccc(O)cc2)C(C(=O)OCc2ccccc2)=C(C)N1 | 5.92
CCOC(=O)C1=C(C)NC(C)=C(C(=O)OCC)C1c1c(Cl)cccc1Cl | 6.52
COC(=O)C1=C(C)N(C)C(C)=C(C(=O)OC)C1c1ccc(-c2ccccc2)cc1 | 5.63
COC(=O)C1=C(C)N(C)C(C)=C(C(=O)OC)C1c1ccc(Cl)c([N+](=O)[O-])c1 | 5.47
CCOC(=O)C1=C(C)NC(C)=C(C(=O)OCC)C1c1ccc(OC)cc1OC | 6.09
CCOC(=O)C1=C(C)NC(C)=C(C(=O)OCC)C1c1ccc(OCC)cc1 | 6.29
C=CCOC(=O)C1=C(C)NC(C)=C(C(=O)OCC=C)C1c1ccc(O)c(OCC)c1 | 6.46
COC(=O)C1=C(C)NC(C)=C(C(=O)OC)C1c1ccc(Cl)cc1 | 5.96
C=CCOC(=O)C1=C(C)NC(C)=C(C(=O)OCC=C)C1c1cccc(Cl)c1 | 6.82
COC(=O)C1=C(C)NC(C)=C(C(=O)OC)C1c1ccc(OC)c([N+](=O)[O-])c1 | 4.93
CCOC(=O)C1=C(C)NC(C)=C(C(=O)OCC)C1c1ccc(C(C)C)cc1 | 6.22
COC(=O)C1=C(C)NC(C)=C(C(=O)OC)C1c1ccccc1 | 5.77
CCOC(=O)C1=C(C)NC(C)=C(C(=O)OCC)C1c1ccccc1 | 6.4

SMILES | pEC50 for potentiation of CFTR deltaF508 (activation potency)
COC(=O)C1=C(C)N=C(C)/C(=C(/O)OC)C1c1cccc(Cl)c1 (stereo unspecified) | 6.22
COC(=O)C1=C(C)NC(C)=C(C(=O)OC)C1c1ccccc1F | 6.26
CCOC(=O)C1=C(C)NC(C)=C(C(=O)OCC)C1c1cccc(Br)c1 | 6.54
COC(=O)C1=C(C)NC(C)=C(C(=O)OC)C1c1cccc(Br)c1 | 6.46
CCOC(=O)C1=C(C)NC(C)=C(C(=O)OC)C1c1ccc(Cl)cc1 (stereo unspecified) | 6.51
C=CCOC(=O)C1=C(C)NC(C)=C(C(=O)OCC=C)C1c1ccc(I)cc1 | 5.77
COC(=O)C1=C(C)N(C)C(C)=C(C(=O)OC)C1c1cccc(Cl)c1 | 4.89
C=CCO/C(O)=C1\C(C)=NC(SCC)=C(C#N)C1c1ccc(Cl)cc1 (stereo unspecified) | 5.58
CCOc1ccc(C2C(C(=O)OC)=C(C)NC(C)=C2C(=O)OC)cc1 | 5.27
CCOC(=O)C1=C(C)NC(C)=C(C(=O)OCC)C1c1ccc(O)c(OCC)c1 | 5.35
C=CCOC(=O)C1=C(C)NC(C)=C(C(=O)OCC=C)C1c1ccc(C(C)C)cc1 | 6.6
COC(=O)C1=C(C)NC(C)=C(C(=O)OC)C1c1ccc(-c2ccc(Cl)c(Cl)c2)o1 | 5.51
CCOC(=O)C1=C(C)NC(C)=C(C(=O)OCC)C1c1ccc(N(CC)CC)cc1 | 5.59
COCCOC(=O)C1=C(C)NC(C)=C(C(=O)OCCOC)C1c1ccc(-c2cccc(Cl)c2Cl)o1 | 5.7
COc1ccc(C(=O)OC2C(C(=O)OCc3ccccc3)=C(C)NC(C)=C2C(=O)OCc2ccccc2)cc1OC | 5.41
C=CCOC(=O)C1=C(C)NC(C)=C(C(=O)OCC=C)C1c1ccc(C)cc1 | 6.3
CCc1ccc(C2C(C(=O)OC)=C(C)NC(C)=C2C(=O)OC)cc1 | 6.14
COC(=O)C1=C(C)NC(C)=C(C(=O)OC)C1c1ccc(OC)cc1 | 6.29
CCOC(=O)C1=C(C)NC(C)=C(C(=O)OCC)C1c1c(F)cccc1Cl | 6.44
C=CCOC(=O)C1=C(C)NC(C)=C(C(=O)OCC=C)C1c1ccc(C(C)(C)C)cc1 | 6.96
C=CCOC(=O)C1=C(C)NC(C)=C(C(=O)OCC=C)C1c1ccc(N(C)C)cc1 | 5.82
C=CCOC(=O)C1=C(C)NC(C)=C(C(=O)OCC=C)C1c1cccc(Oc2ccccc2)c1 | 6.52
COC(=O)C1=C(C)NC(C)=C(C(=O)OC)C1c1ccc(-c2cccc(Cl)c2Cl)o1 | 5.43

Target: L-type voltage-dependent Ca2+ channel (Homo sapiens, UniProt O60840+Q01668+Q13698+Q13936)
Experiment: Inhibition of L-type voltage-dependent Ca2+ channel at 1 uM

SMILES | inhibition at 1 µM
C=CCOC(=O)C1=C(C)NC(C)=C(C(=O)OCC=C)C1c1ccc(Cl)cc1Cl | 81%
C=CCOC(=O)C1=C(C)NC(C)=C(C(=O)OCC=C)C1c1ccc(OC)c(OC)c1 | 28.7%
C=CCOC(=O)C1=C(C)NC(C)=C(C(=O)OCC=C)C1c1ccc(C(=O)OC)cc1 | 7.8%
COC(=O)C1=CNC=C(C(=O)OC)C1c1ccc(Cl)c(Cl)c1 | 17.1%
CCOC(=O)C1=C(C)NC(C)=C(C(=O)OC)C1c1ccco1 (stereo unspecified) | 86.9%
CCOc1ccc(C2C(C(=O)OC)=C(C)NC(C)=C2C(=O)OC)cc1OC | 22.6%
CCOC(=O)C1=C(C)NC(C)=C(C(=O)OC)C1c1ccccc1 (stereo unspecified) | 100%
CCOC(=O)C1=C(C)NC(SC)=C(C#N)C1c1ccccc1 (stereo unspecified) | 23.4%
COC(=O)C1=C(C)NC(C)=C(C(=O)OC)C1c1ccc(N(C)C)cc1 | 4.1%
C=CCOC(=O)C1=C(C)NC(C)=C(C(=O)OCC=C)C1c1ccc(OC)cc1 | 37.2%
CCOC(=O)C1=C(C)NC(C)=C(C(=O)OC)C1c1ccc(C)o1 (stereo unspecified) | 37.6%
COC(=O)C1=C(C)NC(C)=C(C(=O)OC)C1c1ccc(Cl)c(Cl)c1 | 100%
CC1=C(C(=O)OCc2ccccc2)C(c2ccc(O)cc2)C(C(=O)OCc2ccccc2)=C(C)N1 | 72.8%
CCOC(=O)C1=C(C)NC(C)=C(C(=O)OCC)C1c1c(Cl)cccc1Cl | 100%
COC(=O)C1=C(C)N(C)C(C)=C(C(=O)OC)C1c1ccc(-c2ccccc2)cc1 | 23.5%
COC(=O)C1=C(C)N(C)C(C)=C(C(=O)OC)C1c1ccc(Cl)c([N+](=O)[O-])c1 | 35.1%
CCOC(=O)C1=C(C)NC(C)=C(C(=O)OCC)C1c1ccc(OC)cc1OC | 41.8%
CCOC(=O)C1=C(C)NC(C)=C(C(=O)OCC)C1c1ccc(C)cc1 | 29.4%
CCOC(=O)C1=C(C)NC(C)=C(C(=O)OCC)C1c1ccc(OCC)cc1 | 58.7%
C=CCOC(=O)C1=C(C)NC(C)=C(C(=O)OCC=C)C1c1ccc(O)c(OCC)c1 | 63.6%

SMILES | inhibition at 1 µM
COC(=O)C1=C(C)NC(C)=C(C(=O)OC)C1c1ccc(Cl)cc1 | 92.6%
C=CCOC(=O)C1=C(C)NC(C)=C(C(=O)OCC=C)C1c1cccc(Cl)c1 | 100%
COC(=O)C1=C(C)NC(C)=C(C(=O)OC)C1c1ccc(OC)c([N+](=O)[O-])c1 | 15.6%
CCOC(=O)C1=C(C)NC(C)=C(C(=O)OCC)C1c1ccc(C(C)C)cc1 | 30.8%
COC(=O)C1=C(C)NC(C)=C(C(=O)OC)C1c1ccccc1 | 70.5%
CCOC(=O)C1=C(C)NC(C)=C(C(=O)OCC)C1c1ccccc1 | 100%
COC(=O)C1=C(C)N=C(C)/C(=C(/O)OC)C1c1cccc(Cl)c1 (stereo unspecified) | 100%
COC(=O)C1=C(C)NC(C)=C(C(=O)OC)C1c1ccccc1F | 95.9%
CCOC(=O)C1=C(C)NC(C)=C(C(=O)OCC)C1c1cccc(Br)c1 | 100%
COC(=O)C1=C(C)NC(C)=C(C(=O)OC)C1c1cccc(Br)c1 | 100%
CCOC(=O)C1=C(C)NC(C)=C(C(=O)OC)C1c1ccc(Cl)cc1 (stereo unspecified) | 100%
C=CCOC(=O)C1=C(C)NC(C)=C(C(=O)OCC=C)C1c1ccc(I)cc1 | 37.5%
COC(=O)C1=C(C)N(C)C(C)=C(C(=O)OC)C1c1cccc(Cl)c1 | 40.2%
C=CCO/C(O)=C1\C(C)=NC(SCC)=C(C#N)C1c1ccc(Cl)cc1 (stereo unspecified) | 29.7%
CCOc1ccc(C2C(C(=O)OC)=C(C)NC(C)=C2C(=O)OC)cc1 | 14.6%
CCOC(=O)C1=C(C)NC(C)=C(C(=O)OCC)C1c1ccc(O)c(OCC)c1 | 22.8%
C=CCOC(=O)C1=C(C)NC(C)=C(C(=O)OCC=C)C1c1ccc(C(C)C)cc1 | 64%
COC(=O)C1=C(C)NC(C)=C(C(=O)OC)C1c1ccc(-c2ccc(Cl)c(Cl)c2)o1 | 8.3%
CCOC(=O)C1=C(C)NC(C)=C(C(=O)OCC)C1c1ccc(N(CC)CC)cc1 | 34.7%
COCCOC(=O)C1=C(C)NC(C)=C(C(=O)OCCOC)C1c1ccc(-c2cccc(Cl)c2Cl)o1 | 44.9%

SMILES | inhibition at 1 µM
CCOC(=O)C1=C(C)NC(C)=C(C(=O)OCC)C1c1cccc([N+](=O)[O-])c1 | 100%
COc1ccc(C(=O)OC2C(C(=O)OCc3ccccc3)=C(C)NC(C)=C2C(=O)OCc2ccccc2)cc1OC | 23.3%
C=CCOC(=O)C1=C(C)NC(C)=C(C(=O)OCC=C)C1c1ccc(C)cc1 | 55.7%
CCOC(=O)C1=C(C)NC(C)=C(C(=O)OC)C1c1ccc([N+](=O)[O-])cc1 (stereo unspecified) | 79.2%
CCc1ccc(C2C(C(=O)OC)=C(C)NC(C)=C2C(=O)OC)cc1 | 37.4%
COC(=O)C1=C(C)NC(C)=C(C(=O)OC)C1c1ccc(OC)cc1 | 9.1%
CCOC(=O)C1=C(C)NC(C)=C(C(=O)OCC)C1c1c(F)cccc1Cl | 100%
C=CCOC(=O)C1=C(C)NC(C)=C(C(=O)OCC=C)C1c1ccc(C(C)(C)C)cc1 | 5.9%
CCOC(=O)C1=C(C)NC(C)=C(C(=O)OC)C1c1cccc([N+](=O)[O-])c1 (stereo unspecified) [NITRENDIPINE] | 100%
C=CCOC(=O)C1=C(C)NC(C)=C(C(=O)OCC=C)C1c1ccc(N(C)C)cc1 | 23.9%
C=CCOC(=O)C1=C(C)NC(C)=C(C(=O)OCC=C)C1c1cccc(Oc2ccccc2)c1 | 48.2%
CCOC(=O)C1=C(C)N=C(C)/C(=C(/O)OCC)C1/C=C/c1ccccc1 (stereo unspecified) | 46.3%
COC(=O)C1=C(C)NC(C)=C(C(=O)OC)C1c1ccc(-c2cccc(Cl)c2Cl)o1 | 10.3%
COC(=O)C1=C(C)N(c2ccc(N(C)C)cc2)C(C)=C(C(=O)OC)C1c1ccc(Cl)cc1 | 12.9%
CCOC(=O)C1=C(C)NC(C)=C(C(=O)OCC)C1c1ccc(OC)cc1 | 34.2%
CCOC(=O)C1=C(C)NC(C)=C(C(=O)OCC)C1c1c(F)c(F)c(F)c(F)c1F | 100%
CCOC(=O)C1=C(C)N(c2ccc(OC)cc2)C(C)=C(C(=O)OCC)C1c1ccccc1 | 38.7%
CCOC(=O)C1=C(C)NC(C)=C(C(=O)OCC)C1c1ccc(Cl)cc1 | 93.3%
COC(=O)C1=CNC=C(C(=O)OC)C1c1ccccc1Cl | 19.7%
CCOC(=O)C1=C(C)N=C(C)/C(=C(/O)OCC)C1/C=C/c1ccccc1OC (stereo unspecified) | 27.6%
